Earlier results as cited in patent publication US20210137911A1, “NOVEL CHRONOTHERAPY BASED ON CIRCADIAN RHYTHMS” (THE TRUSTEES OF THE UNIVERSITY OF PENNSYLVANIA, priority 2014, published 2021).
Where two headings read alike, the source gives them in different places. Positions of bridges follow the written chain, without caps; N, C: chain ends. Non-standard residues stand in square brackets, D forms with d. Residues, ends and D or L forms follow the SMILES beside them. hArg = N=C(N)NCCCC[C@H](N)C(=O)O; Mpa = O=C(O)CCS

Conditions: cited from earlier work
[1] = half-life of top selling therapeutic compounds (Table 1)
[2] = half-life of therapeutic compound as listed in Table 1

Row | Molecule | ½ Life (in vivo) | ½ Life [1] | also measured
1 | COc1ccc2cc1Oc1cc3c(cc1OC)CC[N+](C)(C)[C@H]3Cc1ccc(cc1)Oc1c(OC)c(OC)cc3c1[C@@H](C2)[N+](C)(C)CC3 [Metocurine Iodide] | 3 h |  | 
2 | CCCCCOC(=O)Nc1nc(=O)n([C@@H]2O[C@H](C)[C@@H](O)[C@H]2O)cc1F [Capecitabine] |  | 0.75 h | 
3 | CC[C@H](C)[C@H](NC(=O)[C@@H]1CCCN1C(=O)CNC(=O)[C@H](Cc1ccccc1)NC(=O)[C@H](CC(N)=O)NC(=O)[C@H](CC(N)=O)NC(=O)[C@H](CO)NC(=O)[C@H](CO)NC(=O)[C@H](Cc1c[nH]cn1)NC(=O)[C@@H](NC(=O)[C@H](CC(C)C)NC(=O)[C@H](Cc1ccccc1)NC(=O)[C@H](CC(N)=O)NC(=O)[C@H](C)NC(=O)[C@H](CC(C)C)NC(=O)[C@H](CCCNC(=N)N)NC(=O)[C@H](CCC(N)=O)NC(=O)[C@@H](NC(=O)[C@H](C)NC(=O)[C@@H]1CSSC[C@H](NC(=O)[C@@H](N)CCCCN)C(=O)N[C@@H](CC(N)=O)C(=O)N[C@@H]([C@@H](C)O)C(=O)N[C@@H](C)C(=O)N[C@@H]([C@@H](C)O)C(=O)N1)[C@@H](C)O)C(C)C)C(=O)N[C@@H](CC(C)C)C(=O)N1CCC[C@H]1C(=O)N1CCC[C@H]1C(=O)N[C@H](C(=O)N[C@@H](CC(N)=O)C(=O)N[C@H](C(=O)NCC(=O)N[C@@H](CO)C(=O)N[C@@H](CC(N)=O)C(=O)N[C@H](C(=O)N[C@@H](Cc1ccc(O)cc1)C(N)=O)[C@@H](C)O)C(C)C)[C@@H](C)O [Pramlintide] | 0.8 h |  | 
4 | Alglucosidase alfa | 2.3 h |  | 
5 | COC(=O)[C@H]1[C@@H](OC(=O)c2ccccc2)C[C@@H]2CC[C@H]1N2C [Cocaine] |  | 1 h | 
6 | CC(C)C[C@H](NC(=O)[C@@H](COC(C)(C)C)NC(=O)[C@H](Cc1ccc(O)cc1)NC(=O)[C@H](CO)NC(=O)[C@H](Cc1c[nH]c2ccccc12)NC(=O)[C@H](Cc1cnc[nH]1)NC(=O)[C@@H]1CCC(=O)N1)C(=O)N[C@@H](CCCNC(=N)N)C(=O)N1CCC[C@H]1C(=O)NNC(N)=O [Goserelin] |  |  | ½ Life [2]: 4 h
7 | CN(C)[C@@H](CCOc1cccc2ccccc12)c1ccccc1 [Dapoxetine] |  | 1 h | 
8 | COc1ccc2nc([S@@+]([O-])Cc3ncc(C)c(OC)c3C)[nH]c2c1 [Esomeprazole] |  | 1 h | 
9 | CC1(C)O[C@@H]2C[C@H]3[C@@H]4C[C@H](F)C5=CC(=O)C=C[C@]5(C)[C@H]4[C@@H](O)C[C@]3(C)[C@]2(C(=O)CO)O1 [Flunisolide] |  | 1.8 h | 
10 | CC1OC2(CS1)CN1CCC2CC1 (stereo not shown) [Cevimeline] |  | 5 h | 
11 | CCN(CC)C(=O)C1CN2CCc3cc(OC)c(OC)cc3C2CC1OC(C)=O (stereo not shown) [Benzquinamide] |  | 1 h | 
12 | CC(C)[N+]1(C)[C@@H]2CC[C@H]1CC(OC(=O)C(CO)c1ccccc1)C2.[Br-] (stereo partly shown) [Ipratropium bromide] |  |  | ½ Life [2]: 2 h
13 | COc1ccc2[nH]c([S+]([O-])Cc3ncc(C)c(OC)c3C)nc2c1 (stereo not shown) [Omeprazole] |  |  | ½ Life [2]: 0.5 h
14 | CC(=O)c1ccc2c(c1)N(CCCN(C)C)c1ccccc1S2 [Acepromazine] |  | 3 h | 
15 | CCC(=O)NCC[C@@H]1CCc2ccc3c(c21)CCO3 [Ramelteon] | 1 h |  | 
16 | NCC(CC(=O)O)c1ccc(Cl)cc1 (stereo not shown) [Baclofen] |  | 2.5 h | 
17 | CCOC(=O)[C@H](CCc1ccccc1)N[C@@H](C)C(=O)N1[C@H](C(=O)O)C[C@@H]2CCC[C@@H]21 [Ramipril, reference compound] | 2 h |  | minimum reported half-life (see Table 1): 2 h
18 | CN(C)CCc1c[nH]c2ccc(Cn3cncn3)cc12 [Rizatriptan] | 2 h |  | 
19 | COc1ccc(CC2c3cc(OC)c(OC)cc3CC[N+]2(C)CCC(=O)OCCCCCOC(=O)CC[N+]2(C)CCc3cc(OC)c(OC)cc3C2Cc2ccc(OC)c(OC)c2)cc1OC (stereo not shown) [Atracurium] |  | 0.33 h | 
20 | C[C@]12CC[C@H]3[C@@H](CCC4=CC(=O)CC[C@@]43C)[C@@H]1CC[C@@H]2O [Testosterone] | 0.166 h |  | 
21 | OCCN(CCO)c1nc(N2CCCCC2)c2nc(N(CCO)CCO)nc(N3CCCCC3)c2n1 [Dipyridamole] |  | 0.66 h | 

Row | Molecule | ½ Life (in vivo) | ½ Life [1] | also measured
22 | Interferon Alfa-2a, Recombinant | 2 h |  | 
23 | Insulin Glulisine | 0.7 h |  | 
24 | Insulin Lispro | 1 h |  | 
25 | C=CC[N+]1([C@H]2C[C@H]3[C@@H]4CC[C@H]5C[C@H](O)[C@@H](N6CCOCC6)C[C@]5(C)[C@H]4CC[C@]3(C)[C@H]2OC(C)=O)CCCC1 [Rocuronium] | 1 h |  | 
26 | NNC(=O)c1ccncc1 [Isoniazid] |  |  | ½ Life [2]: 0.5 h
27 | Urokinase | 0.2 h |  | 
28 | CCCCP(=O)(O)CCCN [SGS742] | 4 h |  | 
29 | O=C1C(CC[S+]([O-])c2ccccc2)C(=O)N(c2ccccc2)N1c1ccccc1 (stereo not shown) [Sulfinpyrazone] | 4 h |  | 
30 | CCNC(=O)[C@@H]1CCCN1C(=O)[C@H](CCCNC(=N)N)NC(=O)[C@H](CC(C)C)NC(=O)[C@@H](CC(C)C)NC(=O)[C@H](Cc1ccc(O)cc1)NC(=O)[C@H](CO)NC(=O)[C@H](Cc1c[nH]c2ccccc12)NC(=O)[C@H](Cc1c[nH]cn1)NC(=O)[C@@H]1CCC(=O)N1 [Leuprolide] | 3 h |  | 
31 | C[C@]12CCC(=O)C=C1CC[C@H]1[C@@H]3CC[C@](O)(C(=O)CO)[C@@]3(C)C[C@H](O)[C@@]12F [Fludrocortisone] |  | 3.5 h | 
32 | CNC(=O)c1ccccc1Sc1ccc2c(/C=C/c3ccccn3)n[nH]c2c1 [Axitinib] |  | 2.5 h | 
33 | Cc1nc(Nc2ncc(C(=O)Nc3c(C)cccc3Cl)s2)cc(N2CCN(CCO)CC2)n1 [Dasatinib] |  | 3 h | 
34 | Denileukin diftitox |  | 1.166 h | 
35 | CC(C)c1ccc2oc3nc(N)c(C(=O)O)cc3c(=O)c2c1 [Amlexanox] |  | 3.5 h | 
36 | COc1ccc2c(c1)[C@]13CCCC[C@@H]1[C@H](C2)N(C)CC3 [Dextromethorphan] |  | 3 h | 
37 | CNC1(c2ccccc2Cl)CCCCC1=O (stereo not shown) [Ketamine] | 2.5 h |  | 
38 | CSc1ccc(C(=O)c2[nH]c(=O)[nH]c2C)cc1 [Enoximone] |  | 4 h | 
39 | Nc1nc2[nH]cc(CCc3ccc(C(=O)N[C@@H](CCC(=O)O)C(=O)O)cc3)c2c(=O)[nH]1 [Pemetrexed] |  |  | ½ Life [2]: 3.5 h
40 | CSCC[C@H](NC(=O)[C@H](Cc1c[nH]c2ccccc12)NC(=O)CCNC(=O)OC(C)(C)C)C(=O)N[C@@H](CC(=O)O)C(=O)N[C@@H](Cc1ccccc1)C(N)=O [Pentagastrin] | 0.166 h |  | 
41 | C=CCc1ccccc1OCC(O)CNC(C)C (stereo not shown) [Alprenolol] |  | 2 h | 
42 | C1CCC(C(CC2CCCCN2)C2CCCCC2)CC1 (stereo not shown) [Perhexiline] |  |  | ½ Life [2]: 2 h

Row | Molecule | ½ Life (in vivo) | ½ Life [1] | also measured
43 | CS(=O)(=O)Nc1ccc([N+](=O)[O-])cc1Oc1ccccc1 [Nimesulide] | 1.8 h |  | 
44 | c1ccc([C@H]2CN3CCSC3=N2)cc1 [Levamisole] |  |  | ½ Life [2]: 4.4 h
45 | Galsulfase | 0.15 h |  | 
46 | CC[C@H](C)C(=O)O[C@H]1C[C@@H](C)C=C2C=C[C@H](C)[C@H](CC[C@@H]3C[C@@H](O)CC(=O)O3)[C@H]21 [Lovastatin] |  |  | ½ Life [2]: 5.3 h
47 | Vitamin A | 1.9 h |  | 
48 | CN1C(C(=O)Nc2ccccn2)=C(O)c2sc(Cl)cc2S1(=O)=O [Lornoxicam] |  |  | ½ Life [2]: 3 h
49 | NCCCNCCSP(=O)(O)O [Amifostine] |  | 0.133 h | 
50 | CC(C)n1c(/C=C/C(O)CC(O)CC(=O)O)c(-c2ccc(F)cc2)c2ccccc21 (stereo not shown) [Fluvastatin, reference compound] |  | 3 h | 
51 | Nc1cc(N2CCCCC2)nc(N)[n+]1[O-] [Minoxidil] | 4.2 h |  | 
52 | COc1ccc2[nH]cc(CCNC(C)=O)c2c1 [Melatonin] |  |  | ½ Life [2]: 0.5833 h
53 | CC(=O)[C@H]1CC[C@H]2[C@@H]3CC[C@H]4C[C@](C)(O)CC[C@]4(C)[C@H]3CC[C@]12C [Ganaxolone] |  |  | ½ Life [2]: 1.3 h
54 | CC(C(=O)O)c1ccc(C(=O)c2ccccc2)s1 (stereo not shown) [Tiaprofenic acid] | 1.5 h |  | 
55 | O=C(c1ccccc1)c1ccc2n1CCC2C(=O)O (stereo not shown) [Ketorolac] |  |  | ½ Life [2]: 2.5 h
56 | C[C@H](/C=C/[C@H](C)C(C)(C)O)[C@H]1CC[C@H]2/C(=C/C=C3C[C@@H](O)C[C@H](O)C3)CCC[C@]12C [Paricalcitol] |  |  | ½ Life [2]: 4 h
57 | CCCCN1CCCCC1C(=O)Nc1c(C)cccc1C (stereo not shown) [Bupivacaine] |  | 2.7 h | 
58 | CC(C)(C)NCC(O)c1cc(O)cc(O)c1 (stereo not shown) [Terbutaline] | 5.5 h |  | 
59 | N=C(N)NCCCC[C@@H]1NC(=O)CCSSC[C@@H](C(N)=O)NC(=O)[C@@H]2CCCN2C(=O)[C@H](Cc2c[nH]c3ccccc23)NC(=O)[C@H](CC(=O)O)NC(=O)CNC1=O [Eptifibatide] ([Mpa][hArg]GDWPC-NH2; disulfide 1-7) | 2.5 h |  | 
60 | CC(=O)[C@H]1CC[C@H]2[C@@H]3C=CC4=CC(=O)CC[C@@]4(C)[C@@H]3CC[C@]12C [Dydrogesterone] |  | 5 h | 
61 | NCCc1ccc(O)c(O)c1 [Dopamine] |  | 0.033 h | 
62 | CC(C)(O)c1ccccc1CC[C@@H](SCC1(CC(=O)O)CC1)c1cccc(/C=C/c2ccc3ccc(Cl)cc3n2)c1 [Montelukast] | 2.7 h |  | 
63 | CC(C)(C)NC[C@H](O)COc1nsnc1N1CCOCC1 [Timolol] | 2.5 h |  | 
